These results are taken from US8697739B2, “Bicyclic acetyl-CoA carboxylase inhibitors and uses thereof” (Novartis AG, priority 2010, dated 2014).

In general, IC50 refers to the point on the concentration scale where inhibition reaches its midpoint.

Structures are written as SMILES. A value given as a limit tells only on which side of the number the result lay.

For the assay, the target named is T1, human acetyl-CoA carboxylase 2 (ACC2) (Homo sapiens, UniProt O00763).
T1 construct: The cDNA encoding amino acids 144 to 2458 of human acetyl-CoA carboxylase 2; made in house; host or cells: Sf9 insect cells (baculovirus, pFastBac1)
T1 sequence (O00763 144-2458): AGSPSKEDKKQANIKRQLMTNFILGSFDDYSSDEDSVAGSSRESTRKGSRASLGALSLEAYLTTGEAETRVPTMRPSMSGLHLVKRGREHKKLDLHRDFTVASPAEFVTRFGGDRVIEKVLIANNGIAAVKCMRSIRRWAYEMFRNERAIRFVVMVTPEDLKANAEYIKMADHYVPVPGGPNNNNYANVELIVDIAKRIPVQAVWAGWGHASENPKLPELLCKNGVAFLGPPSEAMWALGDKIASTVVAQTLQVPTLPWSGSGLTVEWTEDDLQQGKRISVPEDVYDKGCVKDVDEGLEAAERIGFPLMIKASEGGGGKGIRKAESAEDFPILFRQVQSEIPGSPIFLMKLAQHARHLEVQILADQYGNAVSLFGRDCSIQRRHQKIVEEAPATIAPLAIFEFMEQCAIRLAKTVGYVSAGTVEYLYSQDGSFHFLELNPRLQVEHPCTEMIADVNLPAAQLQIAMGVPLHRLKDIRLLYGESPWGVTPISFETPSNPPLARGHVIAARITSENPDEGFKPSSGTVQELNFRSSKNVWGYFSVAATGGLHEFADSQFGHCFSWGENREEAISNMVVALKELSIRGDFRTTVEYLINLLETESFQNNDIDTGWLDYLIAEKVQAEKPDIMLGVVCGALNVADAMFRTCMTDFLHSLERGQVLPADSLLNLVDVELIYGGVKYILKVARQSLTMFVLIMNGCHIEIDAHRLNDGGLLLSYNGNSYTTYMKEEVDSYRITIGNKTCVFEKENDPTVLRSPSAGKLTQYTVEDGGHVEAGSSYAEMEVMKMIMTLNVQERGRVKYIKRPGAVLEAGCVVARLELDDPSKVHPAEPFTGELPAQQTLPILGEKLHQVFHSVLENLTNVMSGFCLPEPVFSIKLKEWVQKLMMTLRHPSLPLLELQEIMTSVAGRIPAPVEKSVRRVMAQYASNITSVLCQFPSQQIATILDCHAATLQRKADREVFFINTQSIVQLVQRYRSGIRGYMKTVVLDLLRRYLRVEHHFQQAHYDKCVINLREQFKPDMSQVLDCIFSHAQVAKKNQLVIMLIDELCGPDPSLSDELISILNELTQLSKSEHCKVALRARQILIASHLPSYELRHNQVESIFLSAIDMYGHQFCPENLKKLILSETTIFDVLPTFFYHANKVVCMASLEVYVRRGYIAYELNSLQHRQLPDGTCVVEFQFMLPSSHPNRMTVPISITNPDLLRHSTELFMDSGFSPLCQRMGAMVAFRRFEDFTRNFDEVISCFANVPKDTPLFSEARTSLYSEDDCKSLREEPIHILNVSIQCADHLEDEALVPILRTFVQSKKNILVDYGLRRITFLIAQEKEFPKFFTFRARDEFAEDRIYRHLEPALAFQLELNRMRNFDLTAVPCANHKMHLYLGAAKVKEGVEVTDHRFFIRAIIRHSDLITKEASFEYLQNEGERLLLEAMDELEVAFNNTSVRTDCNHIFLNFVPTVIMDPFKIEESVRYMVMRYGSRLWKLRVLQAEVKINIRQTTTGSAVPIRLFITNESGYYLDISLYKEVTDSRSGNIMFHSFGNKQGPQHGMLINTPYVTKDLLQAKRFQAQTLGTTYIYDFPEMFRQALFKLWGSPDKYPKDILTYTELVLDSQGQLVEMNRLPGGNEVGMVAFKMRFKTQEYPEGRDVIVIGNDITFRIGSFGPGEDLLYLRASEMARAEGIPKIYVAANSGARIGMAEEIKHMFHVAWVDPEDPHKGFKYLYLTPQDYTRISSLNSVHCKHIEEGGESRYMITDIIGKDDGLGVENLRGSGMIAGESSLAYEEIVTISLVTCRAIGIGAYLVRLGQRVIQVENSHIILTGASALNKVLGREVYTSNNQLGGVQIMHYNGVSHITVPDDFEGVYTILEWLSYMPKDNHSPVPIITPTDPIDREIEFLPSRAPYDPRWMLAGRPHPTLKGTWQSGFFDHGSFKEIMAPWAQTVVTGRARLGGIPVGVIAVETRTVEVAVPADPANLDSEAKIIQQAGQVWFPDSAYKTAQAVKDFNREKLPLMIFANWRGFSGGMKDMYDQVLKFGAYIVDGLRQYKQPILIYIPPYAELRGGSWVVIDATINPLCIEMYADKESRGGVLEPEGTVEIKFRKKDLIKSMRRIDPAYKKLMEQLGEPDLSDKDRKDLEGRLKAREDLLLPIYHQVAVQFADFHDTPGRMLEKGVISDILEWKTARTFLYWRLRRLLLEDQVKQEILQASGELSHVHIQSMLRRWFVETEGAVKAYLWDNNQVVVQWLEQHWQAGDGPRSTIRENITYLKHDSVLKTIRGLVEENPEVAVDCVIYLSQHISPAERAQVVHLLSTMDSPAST
Briefly: Acetyl-CoA carboxylase enzyme assay (malonyl-CoA formation by LC/MS/MS). The format is biochemical. The following applies: recombinant human ACC2 (aa 144-2458); read-out: IC50 ACC2. Put shortly: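 Malonyl-CoA formation was read by LC/MS/MS MRM against a [13C3]-malonyl-CoA internal standard, after acetic acid quench. The enzyme was baculovirus/Sf9-expressed human ACC2 residues 144–2458, given 15 minutes room-temperature compound preincubation in HEPES pH 7.5 buffer with MgCl2, citrate and DTT. Substrate solution held 50 μM acetyl-CoA, 120 μM ATP and 2 mM KHCO3.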
As for `Cn1c(-c2ccc(CCC(=O)O)cc2)cc2ccc(S(=O)(=O)N[C@H]3CC[C@H](C(=O)N4CCOC[C@@H]4C4CC4)CC3)cc21` [Example 476, 3-(4-(6-(N-((1S,4r)-4-((S)-3-cyclopropylmorpholine-4-carbonyl)cyclohexyl)sulfamoyl)-1-methyl-1H-indol-2-yl)phenyl)propanoic acid], the IC50 is below 10 nM. With `CC(C)(CO)[C@@H](NC(=O)[C@H]1CC[C@H](NS(=O)(=O)c2ccc3c(Cl)c(-c4ccccc4)[nH]c3c2)CC1)c1ccccc1` [Example 478, (1r,4S)-4-(3-chloro-2-phenyl-1H-indole-6-sulfonamido)-N-((S)-3-hydroxy-2,2-dimethyl-1-phenylpropyl)cyclohexanecarboxamide] the figure was below 10 nM; with `COCc1ccc(-c2[nH]c3cc(S(=O)(=O)N[C@H]4CC[C@H](C(=O)N5CCOC[C@@H]5C5CC5)CC4)ccc3c2Cl)cc1` [Example 480, 3-chloro-N-((1S,4r)-4-((S)-3-cyclopropylmorpholine-4-carbonyl)cyclohexyl)-2-(4-(methoxymethyl)phenyl)-1H-indole-6-sulfonamide], below 10 nM. For the compound `Cc1ccccc1-c1cc2ccc(S(=O)(=O)N[C@H]3CC[C@H](C(=O)N4CCOC[C@@H]4C4CC4)CC3)cc2[nH]1` [Example 481, N-((1S,4r)-4-((S)-3-cyclopropylmorpholine-4-carbonyl)cyclohexyl)-2-o-tolyl-1H-indole-6-sulfonamide], the IC50 turned out to be 20 nM. `Cc1ccccc1-c1cc2ccc(S(=O)(=O)N[C@H]3CC[C@H](C(=O)N4CCOC[C@@H]4C)CC3)cc2[nH]1` [Example 482, N-((1S,4r)-4-((S)-3-methylmorpholine-4-carbonyl)cyclohexyl)-2-o-tolyl-1H-indole-6-sulfonamide]: the IC50 came to 90 nM. With `Cc1c(-c2ccc(CCC(=O)O)cc2)n(C)c2cc(S(=O)(=O)N[C@H]3CC[C@H](C(=O)N4CCOC[C@@H]4C4CC4)CC3)ccc12` [Example 484, 3-(4-(6-(N-((1S,4r)-4-((S)-3-cyclopropylmorpholine-4-carbonyl)cyclohexyl)sulfamoyl)-1,3-dimethyl-1H-indol-2-yl)phenyl)propanoic acid] the figure was below 10 nM. With `COCCc1ccc(-c2[nH]c3cc(S(=O)(=O)N[C@H]4CC[C@H](C(=O)N5CCC6(CC5)COC6)CC4)ccc3c2Cl)cc1` [Example 485, N-((1r,4r)-4-(2-oxa-7-azaspiro[3.5]nonane-7-carbonyl)cyclohexyl)-3-chloro-2-(4-(2-methoxyethyl)phenyl)-1H-indole-6-sulfonamide] the figure was 43 nM. Next, `CCn1c(-c2ccccc2)cc2ccc(S(=O)(=O)N[C@H]3CC[C@H](C(=O)N4CCOC[C@@H]4C)CC3)cc21` [Example 486, 1-ethyl-N-((1S,4r)-4-((S)-3-methylmorpholine-4-carbonyl)cyclohexyl)-2-phenyl-1H-indole-6-sulfonamide]: 75 nM. With `CCOC(=O)CCc1cn(C)c2ccc(S(=O)(=O)N[C@H]3CC[C@H](C(=O)N[C@H](C)c4ccc(F)cc4)CC3)cc12` [Example 487], the IC50 came out at 91 nM.

As to `CC(C)OC(=O)c1ccc(NS(=O)(=O)c2ccc3[nH]c(-c4ccccc4)nc3c2)cc1` [Example 488, isopropyl 4-(2-phenyl-1H-benzo[d]imidazole-5-sulfonamido)benzoate], the IC50 came out at 1030 nM.

Regarding `CC(C)(C)OC(=O)c1ccc(NS(=O)(=O)c2ccc3[nH]c(-c4ccccc4)nc3c2)cc1` [Example 489, tert-butyl 4-(2-phenyl-1H-benzo[d]imidazole-5-sulfonamido)benzoate], the IC50 amounted to 1110 nM. Regarding `O=C(Nc1ccccc1)c1ccc(NS(=O)(=O)c2ccc3[nH]c(-c4ccccc4)nc3c2)cc1` [Example 490, N-phenyl-4-(2-phenyl-1H-benzo[d]imidazole-5-sulfonamido)benzamide], the IC50 was above 139000 nM. With `CCCCOC(=O)c1ccc(NS(=O)(=O)c2ccc3nc(-c4ccccc4)[nH]c3c2)cc1` [Example 491, butyl 4-(2-phenyl-1H-benzo[d]imidazole-6-sulfonamido)benzoate] the figure was 1130 nM; with `COc1ccccc1-c1nc2ccc(S(=O)(=O)Nc3ccc(C(=O)OC(C)C)cc3)cc2[nH]1` [Example 492, isopropyl 4-(2-(2-methoxyphenyl)-1H-benzo[d]imidazole-6-sulfonamido)benzoate], 1350 nM; with `CCCOC(=O)c1ccc(OS(=O)(=O)c2ccc3nc(-c4ccccc4)[nH]c3c2)cc1` [Example 493, propyl 4-(2-phenyl-1H-benzo[d]imidazol-6-ylsulfonyloxy)benzoate], above 139000 nM.

Regarding `CC(=O)c1cccc(-c2nc3ccc(S(=O)(=O)Nc4ccc(C(=O)OC(C)C)cc4)cc3[nH]2)c1` [Example 494, isopropyl 4-(2-(3-acetylphenyl)-1H-benzo[d]imidazole-6-sulfonamido)benzoate], the concentration for half-maximal inhibition (IC50) was determined as 1890 nM.

For the compound `CC(=O)c1ccc(-c2nc3ccc(S(=O)(=O)Nc4ccc(C(=O)OC(C)C)cc4)cc3[nH]2)cc1` [Example 495, isopropyl 4-(2-(4-acetylphenyl)-1H-benzo[d]imidazole-6-sulfonamido)benzoate], the IC50 was 990 nM. With `CC(C)OC(=O)c1ccc(NS(=O)(=O)c2ccc3nc(-c4cccc(F)c4)[nH]c3c2)cc1` [Example 496, isopropyl 4-(2-(3-fluorophenyl)-1H-benzo[d]imidazole-6-sulfonamido)benzoate] the figure was 2340 nM; with `COc1ccc(-c2nc3ccc(S(=O)(=O)Nc4ccc(C(=O)OC(C)C)cc4)cc3[nH]2)cc1` [Example 497, isopropyl 4-(2-(4-methoxyphenyl)-1H-benzo[d]imidazole-6-sulfonamido)benzoate], 762 nM. With `CC(=O)Nc1ccc(-c2nc3ccc(S(=O)(=O)Nc4ccc(C(=O)OC(C)C)cc4)cc3[nH]2)cc1` [Example 498, isopropyl 4-(2-(4-acetamidophenyl)-1H-benzo[d]imidazole-6-sulfonamido)benzoate] the figure was 495 nM; with `CC(C)OC(=O)c1ccc(NS(=O)(=O)c2ccc3nc(-c4ccc(F)cc4)[nH]c3c2)cc1` [Example 499, isopropyl 4-(2-(4-fluorophenyl)-1H-benzo[d]imidazole-6-sulfonamido)benzoate], 2110 nM. With `COc1cccc(-c2nc3ccc(S(=O)(=O)Nc4ccc(C(=O)OC(C)C)cc4)cc3[nH]2)c1` [Example 500, isopropyl 4-(2-(3-methoxyphenyl)-1H-benzo[d]imidazole-6-sulfonamido)benzoate] the figure was 1490 nM; with `Cc1cccc(-c2nc3ccc(S(=O)(=O)Nc4ccc(C(=O)OC(C)C)cc4)cc3[nH]2)c1` [Example 501, isopropyl 4-(2-m-tolyl-1H-benzo[d]imidazole-6-sulfonamido)benzoate], 1660 nM; with `CC(C)OC(=O)c1ccc(NS(=O)(=O)c2ccc3nc(-c4ccccc4F)[nH]c3c2)cc1` [Example 502, isopropyl 4-(2-(2-fluorophenyl)-1H-benzo[d]imidazole-6-sulfonamido)benzoate], 1280 nM. With `CC(C)OC(=O)c1ccc(NS(=O)(=O)c2ccc3nc(-c4ccc(O)cc4)[nH]c3c2)cc1` [Example 503, isopropyl 4-(2-(4-hydroxyphenyl)-1H-benzo[d]imidazole-6-sulfonamido)benzoate], the IC50 stood at 819 nM. With `Cc1ccc(-c2nc3ccc(S(=O)(=O)Nc4ccc(C(=O)OC(C)C)cc4)cc3[nH]2)cc1` [Example 504, isopropyl 4-(2-p-tolyl-1H-benzo[d]imidazole-6-sulfonamido)benzoate] the figure was 1740 nM. In the case of `CC(C)OC(=O)c1ccc(NS(=O)(=O)c2ccc3nc(-c4ccc(OC(C)C)cc4)[nH]c3c2)cc1` [Example 505, isopropyl 4-(2-(4-isopropoxyphenyl)-1H-benzo[d]imidazole-6-sulfonamido)benzoate], the IC50 came out at 1780 nM. Consider `CC(C)OC(=O)c1ccc(NS(=O)(=O)c2ccc3nc(-c4ccc(C(C)C)cc4)[nH]c3c2)cc1` [Example 506, isopropyl 4-(2-(4-isopropylphenyl)-1H-benzo[d]imidazole-6-sulfonamido)benzoate], for which the IC50 was 1950 nM. With `CC(C)OC(=O)c1ccc(NS(=O)(=O)c2ccc3nc(-c4ccc(Oc5ccccc5)cc4)[nH]c3c2)cc1` [Example 507, isopropyl 4-(2-(4-phenoxyphenyl)-1H-benzo[d]imidazole-6-sulfonamido)benzoate] the figure was 22100 nM. Next, `CC(C)OC(=O)c1ccc(NS(=O)(=O)c2ccc3nc(-c4ccc(N(C)C)cc4)[nH]c3c2)cc1` [Example 508, isopropyl 4-(2-(4-(dimethylamino)phenyl)-1H-benzo[d]imidazole-6-sulfonamido)benzoate]: 1380 nM; `CC(C)OC(=O)c1ccc(NS(=O)(=O)c2ccc3nc(-c4ccc(C(=O)O)cc4)[nH]c3c2)cc1` [Example 509, 4-(6-(N-(4-(isopropoxycarbonyl)phenyl)sulfamoyl)-1H-benzo[d]imidazol-2-yl)benzoic acid]: 678 nM. With `CC(C)OC(=O)c1ccc(NS(=O)(=O)c2ccc3nc(-c4cncs4)[nH]c3c2)cc1` [Example 510, isopropyl 4-(2-(thiazol-5-yl)-1H-benzo[d]imidazole-6-sulfonamido)benzoate] the figure was 1810 nM. As to `CC(C)OC(=O)c1ccc(NS(=O)(=O)c2ccc3nc(-c4cccc(O)c4)[nH]c3c2)cc1` [Example 511, isopropyl 4-(2-(3-hydroxyphenyl)-1H-benzo[d]imidazole-6-sulfonamido)benzoate], the IC50 was 1050 nM. With `CC(C)OC(=O)c1ccc(NS(=O)(=O)c2ccc3nc(-c4ccc(C(C)(C)C)cc4)[nH]c3c2)cc1` [Example 512, isopropyl 4-(2-(4-tert-butylphenyl)-1H-benzo[d]imidazole-6-sulfonamido)benzoate] the figure was 2290 nM.
